The target in one series is T1, GR (Homo sapiens, UniProt P04150).
T1 construct: expressed in transfected cells; host or cells: CHO-K1
T1 sequence (P04150 1-777): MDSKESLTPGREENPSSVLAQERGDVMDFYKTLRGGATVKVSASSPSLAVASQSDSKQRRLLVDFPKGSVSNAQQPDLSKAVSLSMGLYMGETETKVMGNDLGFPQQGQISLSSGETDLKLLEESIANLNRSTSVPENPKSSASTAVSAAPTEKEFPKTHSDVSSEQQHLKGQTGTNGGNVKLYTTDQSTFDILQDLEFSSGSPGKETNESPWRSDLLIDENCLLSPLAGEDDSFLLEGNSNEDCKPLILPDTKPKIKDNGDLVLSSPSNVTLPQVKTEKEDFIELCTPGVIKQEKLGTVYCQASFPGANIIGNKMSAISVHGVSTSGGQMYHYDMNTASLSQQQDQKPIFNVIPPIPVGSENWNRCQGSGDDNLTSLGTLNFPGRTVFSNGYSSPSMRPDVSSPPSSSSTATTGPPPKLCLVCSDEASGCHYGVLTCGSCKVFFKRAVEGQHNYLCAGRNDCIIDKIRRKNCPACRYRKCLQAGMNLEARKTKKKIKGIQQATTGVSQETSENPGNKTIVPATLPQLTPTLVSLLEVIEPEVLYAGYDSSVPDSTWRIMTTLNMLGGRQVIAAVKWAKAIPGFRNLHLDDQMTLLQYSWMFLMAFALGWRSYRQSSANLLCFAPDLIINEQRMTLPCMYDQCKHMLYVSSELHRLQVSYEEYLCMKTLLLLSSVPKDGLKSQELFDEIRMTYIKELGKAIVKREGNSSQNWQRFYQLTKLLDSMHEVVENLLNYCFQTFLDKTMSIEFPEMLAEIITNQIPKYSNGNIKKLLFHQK
Nature of the series: In Vitro GR Luciferase Reporter Assay (antagonist mode, CHO-K1-GR-MMTV-Luc reporter cells). The series is classed as cell-based. In short, it runs like this:
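CHO-K1-GR-MMTV-Luc cells in phenol red-free DMEM with 10% CSS, stimulated with 10 nM dexamethasone (final) and treated with 8-point 1:5 compound dilutions for about 18-24 h at 37° C. Luciferase measured by OneGlo luminescence; IC50 derived for inhibition of GR activity.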
For orientation: In a reporter assay the amount or activity of a reporter protein is the signal.

In a further series the target is T2, CYP2C8 (Homo sapiens, UniProt P10632).
T2 construct: Pooled human microsomes were obtained from Sekisui XenoTech, KS; tissue Sekisui XenoTech, KS; host or cells: pooled human liver microsomes
T2 sequence (P10632 1-490): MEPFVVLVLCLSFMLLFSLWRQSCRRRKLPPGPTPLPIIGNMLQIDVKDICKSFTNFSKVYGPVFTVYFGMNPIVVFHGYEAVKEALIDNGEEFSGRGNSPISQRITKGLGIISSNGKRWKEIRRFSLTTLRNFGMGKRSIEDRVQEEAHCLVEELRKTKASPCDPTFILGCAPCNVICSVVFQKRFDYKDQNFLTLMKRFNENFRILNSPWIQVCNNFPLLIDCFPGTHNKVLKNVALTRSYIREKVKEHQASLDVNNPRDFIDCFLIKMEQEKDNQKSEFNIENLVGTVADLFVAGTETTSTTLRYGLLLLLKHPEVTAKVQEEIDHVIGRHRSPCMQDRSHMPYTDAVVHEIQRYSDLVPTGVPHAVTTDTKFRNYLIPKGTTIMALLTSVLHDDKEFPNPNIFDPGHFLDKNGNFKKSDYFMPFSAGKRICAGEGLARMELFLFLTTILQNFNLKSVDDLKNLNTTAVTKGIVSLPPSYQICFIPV
Put plainly: CYP Inhibition Assay (CYP2C8, human liver microsomes, paclitaxel substrate). The series is classed as in vitro ADME. The note with it: pH 7.4; pooled human liver microsomes 0.1 mg/mL, probe substrate paclitaxel. In short, it runs like this: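 Pooled human liver microsomes (0.1 mg/mL) in 50 mM potassium phosphate pH 7.4 with compound, started with 1 mM NADPH, 5 min at 37° C, duplicate.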

Where [1] appears, read: antagonist mode, 10 nM Dexamethasone.
[2] abbreviates: antagonist assay with 10 nM Dexamethasone, 18-24 hours.

One may read the IC50 as the concentration needed to halve the response being measured. Read a low IC50 as inhibition by little substance. Usually inhibition stands for how much of the control response was suppressed.

Turning to `Cn1cc(S(=O)(=O)C[C@H]2CCC3=Cc4c(cnn4-c4ccc(F)cc4)C[C@]3(C(=O)c3cc(C(F)(F)F)ccn3)C2)cn1` (single isomer, unassigned) [Example 118], the IC50 against GR (setting [1]) was ≤ 100 nM. For the same compound, the inhibition at 5 min against CYP2C8 is ≤ 25%.
Take `CN([C@H]1CCC2=Cc3c(cnn3-c3ccc(F)cc3)C[C@]2(C(=O)c2cc(C(F)(F)F)ccn2)C1)S(=O)(=O)c1ccc(F)cc1` [Example 5, 4-Fluoro-N-((4aS,6S)-1-(4-fluorophenyl)-4a-(4-(trifluoromethyl)picolinoyl)-4,4a,5,6,7,8-hexahydro-1H-benzo[f]indazol-6-yl)-N-methylbenzenesulfonamide]: the IC50 at GR (setting [2]) is ≤ 100 nM. At CYP2C8, this compound showed an inhibition at 5 min of 25 to 50%.
As to `Cn1cc(S(=O)(=O)N(C2CC2)[C@H]2CCC3=Cc4c(cnn4-c4ccc(F)cc4)C[C@]3(C(=O)c3cc(C(F)(F)F)ccn3)C2)cn1` [Example 88, N-cyclopropyl-N-((4aS,6S)-1-(4-fluorophenyl)-4a-(4-(trifluoromethyl)picolinoyl)-4,4a,5,6,7,8-hexahydro-1H-benzo[f]indazol-6-yl)-1-methyl-1H-pyrazole-4-sulfonamide], on GR (setting [2]), the half-inhibitory concentration (IC50) is ≤ 100 nM. Also, the inhibition at 5 min at CYP2C8 is 25 to 50%.
For `CN([C@H]1CCC2=Cc3c(cnn3-c3ccc(F)cc3)C[C@]2(C(=O)c2cc(C(F)(F)F)ccn2)C1)S(=O)(=O)c1ccn(C)n1` [Example 98, N-((4aS,6S)-1-(4-fluorophenyl)-4a-(4-(trifluoromethyl)picolinoyl)-4,4a,5,6,7,8-hexahydro-1H-benzo[f]indazol-6-yl)-N,1-dimethyl-1H-pyrazole-3-sulfonamide] the same measures were ≤ 100 nM and 25 to 50%.
Turning to `Cn1cc(S(=O)(=O)N(CC2CC2)[C@H]2CCC3=Cc4c(cnn4-c4ccc(F)cc4)C[C@]3(C(=O)c3cc(C(F)(F)F)ccn3)C2)cn1` [Example 103, N-(cyclopropylmethyl)-N-((4aS,6S)-1-(4-fluorophenyl)-4a-(4-(trifluoromethyl)picolinoyl)-4,4a,5,6,7,8-hexahydro-1H-benzo[f]indazol-6-yl)-1-methyl-1H-pyrazole-4-sulfonamide], the IC50 at GR (setting [2]) was ≤ 100 nM. On CYP2C8, this compound yielded an inhibition at 5 min of 25 to 50%.
On to `Cn1ccc(S(=O)(=O)N(CC(F)(F)F)[C@H]2CCC3=Cc4c(cnn4-c4ccc(F)cc4)C[C@]3(C(=O)c3cc(C(F)(F)F)ccn3)C2)n1` [Example 111, N-((4aS,6S)-1-(4-Fluorophenyl)-4a-(4-(trifluoromethyl)picolinoyl)-4,4a,5,6,7,8-hexahydro-1H-benzo[f]indazol-6-yl)-1-methyl-N-(2,2,2-trifluoroethyl)-1H-pyrazole-3-sulfonamide], for which the IC50 against GR (setting [1]) is ≤ 100 nM. For the same compound, the inhibition at 5 min against CYP2C8 was 25 to 50%.
Regarding `Cn1ccc(S(=O)(=O)[C@H]2CCC3=Cc4c(cnn4-c4ccc(F)cc4)C[C@]3(C(=O)c3cc(C(F)(F)F)ccn3)C2)n1` [Example 113, ((4aS,6S)-1-(4-Fluorophenyl)-6-((1-methyl-1H-pyrazol-3-yl)sulfonyl)-1,4,5,6,7,8-hexahydro-4aH-benzo[f]indazol-4a-yl)(4-(trifluoromethyl)pyridin-2-yl)methanone], the IC50 at GR (setting [1]) was ≤ 100 nM. The inhibition at 5 min against CYP2C8 was ≤ 25%.
For the compound `Cn1ccc(S(=O)(=O)N(C2CC2)[C@H]2CCC3=Cc4c(cnn4-c4ccc(F)cc4)C[C@]3(C(=O)c3cc(C(F)(F)F)ccn3)C2)n1` [Example 138, N-cyclopropyl-N-((4aS,6S)-1-(4-fluorophenyl)-4a-(4-(trifluoromethyl)picolinoyl)-4,4a,5,6,7,8-hexahydro-1H-benzo[f]indazol-6-yl)-1-methyl-1H-pyrazole-3-sulfonamide], the IC50 against GR (setting [1]) was ≤ 100 nM. In addition, the inhibition at 5 min on CYP2C8 lay in the range of 50 to 75%.
As to `O=C(c1ncc(C(F)(F)F)s1)[C@]12Cc3cnn(-c4ccc(F)cc4)c3C=C1CC[C@H](N(C1CC1)S(=O)(=O)c1ccc(F)cc1)C2` [Example 177, N-cyclopropyl-4-fluoro-N-((4aS,6S)-1-(4-fluorophenyl)-4a-(5-(trifluoromethyl)thiazole-2-carbonyl)-4,4a,5,6,7,8-hexahydro-1H-benzo[f]indazol-6-yl)benzenesulfonamide], on GR (setting [1]), the IC50 is ≤ 100 nM. For the same compound, the inhibition at 5 min against CYP2C8 was ≤ 25%.
Consider `Cn1ccc(S(=O)(=O)N(CC2CC2)[C@H]2CCC3=Cc4c(cnn4-c4ccc(F)cc4)C[C@]3(C(=O)c3ncc(C(F)(F)F)s3)C2)n1` [Example 179, N-(cyclopropylmethyl)-N-((4aS,6S)-1-(4-fluorophenyl)-4a-(5-(trifluoromethyl)thiazole-2-carbonyl)-4,4a,5,6,7,8-hexahydro-1H-benzo[f]indazol-6-yl)-1-methyl-1H-pyrazole-3-sulfonamide], for which, at GR (setting [1]), the IC50 is ≤ 100 nM. The inhibition at 5 min on CYP2C8 lay within 25 to 50%.
On the same counts, the results for `CC(C)N([C@H]1CCC2=Cc3c(cnn3-c3ccc(F)cc3)C[C@]2(C(=O)c2cc(C(F)(F)F)ccn2)C1)S(=O)(=O)c1ccn(C)n1` [Example 186, N-((4aS,6S)-1-(4-fluorophenyl)-4a-(4-(trifluoromethyl)picolinoyl)-4,4a,5,6,7,8-hexahydro-1H-benzo[f]indazol-6-yl)-N-isopropyl-1-methyl-1H-pyrazole-3-sulfonamide] are ≤ 100 nM and 50 to 75%.
On to `CC(C)N(C(=O)c1cnn(C)c1)[C@H]1CCC2=Cc3c(cnn3-c3ccc(F)cc3)C[C@]2(C(=O)c2ncc(C(F)(F)F)s2)C1` [Example 211, N-((4aS,6S)-1-(4-fluorophenyl)-4a-(5-(trifluoromethyl)thiazole-2-carbonyl)-4,4a,5,6,7,8-hexahydro-1H-benzo[f]indazol-6-yl)-N-isopropyl-1-methyl-1H-pyrazole-4-carboxamide], for which the IC50 at GR (setting [1]) is ≤ 100 nM. The same compound showed an inhibition at 5 min against CYP2C8 of 25 to 50%.
Regarding `Cn1ccc(S(=O)(=O)N(C2CC(F)(F)C2)[C@H]2CCC3=Cc4c(cnn4-c4ccc(F)cc4)C[C@]3(C(=O)c3cc(C(F)(F)F)ccn3)C2)n1` [Example 227, N-(3,3-difluorocyclobutyl)-N-((4aS,6S)-1-(4-fluorophenyl)-4a-(4-(trifluoromethyl)picolinoyl)-4,4a,5,6,7,8-hexahydro-1H-benzo[f]indazol-6-yl)-1-methyl-1H-pyrazole-3-sulfonamide], the IC50 against GR (setting [1]) was ≤ 100 nM. In addition, the inhibition at 5 min against CYP2C8 is 25 to 50%.
Take `O=C(c1cc(Cl)ccn1)[C@]12Cc3cnn(-c4ccc(F)cc4)c3C=C1CC[C@H](N(C1CC1)S(=O)(=O)c1ccc(F)cc1)C2` [Example 232, N-((4aS,6S)-4a-(4-chloropicolinoyl)-1-(4-fluorophenyl)-4,4a,5,6,7,8-hexahydro-1H-benzo[f]indazol-6-yl)-N-cyclopropyl-4-fluorobenzenesulfonamide]: the IC50 against GR (setting [1]) is ≤ 100 nM. At CYP2C8, this compound gave an inhibition at 5 min of 25 to 50%.
Turning to `Cn1cc(S(=O)(=O)N(CC(C)(C)O)[C@H]2CCC3=Cc4c(cnn4-c4ccc(F)cc4)C[C@]3(C(=O)c3cc(F)ccn3)C2)cn1` [Example 248, N-((4aS,6S)-1-(4-fluorophenyl)-4a-(4-fluoropicolinoyl)-4,4a,5,6,7,8-hexahydro-1H-benzo[f]indazol-6-yl)-N-(2-hydroxy-2-methylpropyl)-1-methyl-1H-pyrazole-4-sulfonamide], the IC50 on GR (setting [1]) was ≤ 100 nM. Also, at CYP2C8, the inhibition at 5 min is ≤ 25%.
